Data set [1] relates to B16F10 mouse melanoma cell line. Kind of data set: MTT assay on B16F10 cell line. The conditions noted are these: B16F10 WT cells, 15 μM or 35 μM. It is filed as cell-based. As to the method: (§1) RNA was extracted and qRT-PCR was performed with primers amplifying the unspliced (intron) and the spliced (exon) globin-SL8-intron RNA. Data are given as mean ±SEM of the ratio of 2^−ΔΔCt intron and 2^−ΔΔCt exon of at least three independent experiments. […] Data are express as mean ±SEM of the percentage of viable cells compared to the control condition of at least three independent experiments. *P<0.05, **P<0.01, ***P<0.001 (unpaired student t test).
(§2) MCA205 mouse sarcoma cell line is cultured at 37° C. under 5% CO2 in RPMI 1640 medium (Life Technologies) in the presence of 1% glutamine, 1% sodium pyruvate, 1% non-essential amino-acids, 1% penicillin/streptomycin and 10% FBS (Life Technologies) under standard conditions. B16F10 mouse melanoma cell line, MRC5 human fibroblast cell line and A375 human melanoma cell line are cultured at 37° C. under 5% CO2 in DMEM medium (Life Technologies) containing 1% glutamine, 1% penicillin/streptomycin and 10% FCS under standard conditions. A549 human lung carcinoma cell line is cultured at 37° C. under 5% CO2 in DMEM/F12+Glutamax I in the presence of 1% Hepes, 1% sodium pyruvate and 10% FBS under standard conditions. Stable MCA205-Globin-SL8-intron cell line are cultured under the same condition as MCA205 cell line with additional 2 mg/ml G418 (geneticin from Life Technologies) for selection. Stable B16F10-Globin-SL8-intron cell line are cultured under the same condition as B16F10 cell line with additional 2 mg/ml G418 (geneticin from Life Technologies) for selection. The SL8/Kb-specific (B3Z) T-cell reporter hybridoma are cultured at 37° C. under 5% CO2 in RPMI 1640 medium (Life Technologies) in the presence of 1% glutamine, 0.1% β-galactosidase, 1% penicillin/streptomycin and 10% FCS under standard conditions.
(§3) MTT assay on MCA205 and B16F10 cell lines treated with 6.25 μM, 15 μM or 25 μM of isoginkgetin. Dare are given as the mean of the percentage of cell viability ±SEM from at least three independent experiments.

The next data set concerns MCA205 WT tumor. Kind of data set: Tumor challenge, MCA205 WT in immunocompetent C57BL/6 mice. It counts as in vivo, mouse. The conditions noted are these: 18 mg/kg intraperitoneally, days 5, 10 and 15 (FIG. 11D). As to the method:
(A) Experimental settings. Growth of (B) sarcoma MCA205 or (C) melanoma B16F10 cells that both stably express the globin-SL8-intron construct or (D) MCA205 Wild Type (WT) or (E) B16F10 WT cells that were subcutaneously inoculated on the flank of immunocompetent C57BL/6 mice injected intraperitoneally with 12 mg/kg or 18 mg/kg of isoginkgetin at days 5, 10 and 15 after inoculation. Tumor size was assessed every 3 to 4 days until reaching the established ethical endpoints. Each line represents the tumor size in area (mm^2) of 6 mice in each group. Size in area (mm^2) of (F) MCA205 globin-SL8-intron, (G) B16F10 globin-SL8-intron, (H) MCA205 WT or (I) B16F10 WT tumors subcutaneously inoculated on the flank of immunodeficient Nu/Nu Nude mice injected intraperitoneally with 18 mg/kg of isoginkgetin at days 5, 10 and 15 after inoculation. Data are presented at the day before the endpoints are reached.
Data are given as mean ±SEM. *P<0.05, **P<0.01, ***P<0.001 (unpaired student t test). […] Tumor size was assessed every 3 to 4 days until reaching the established ethical endpoints. […]
The SL8 peptide has been widely shown to be highly immunogenic in vivo. […] At days 5, 10 and 15 after tumor inoculation, the mice were injected intraperitoneally with a define dose of isoginkgetin, and the tumor growth was monitored (FIG. 9A). […]

Data set [2] has as its system splicing of the Globin-SL8-intron gene product in MCA205 cells. Nature of the data set: qRT-PCR of unspliced/spliced globin-SL8-intron RNA, MCA205. It is filed as cell-based, mouse. As to conditions: 15 μM isoginkgetin, 35 μM IP2 or 35 μM M2P2, 48 hours. As to the method:
as §1
In addition, it has been shown that cancer cells can acquire deficiencies in the splicing machinery that benefit their growth, for example by preventing the expression of tumor suppressor genes.

Data set [3] has as its system H2-K^b molecules at the cell surface of MCA205 cells. Kind of data set: Flow cytometry of H2-K^b expression, MCA205. It counts as cell-based, mouse. The text has this:
(§4) Flow cytometry analyses of H2-K^b expression on MCA205 and B16F10 cells treated with (A) isoginkgetin. Flow cytometry analyses of transiently expressed H2-K^b expression on A375, A549 and MRC5 cells treated with (B) isoginkgetin.

The test system of data set [4] is H2-K^b molecules at the cell surface of B16F10 cells. Kind of data set: Flow cytometry of H2-K^b expression, B16F10. It counts as cell-based, mouse.
Excerpt: as §4

Data set [5] in a line: MTT assay on A549 cell line. It counts as cell-based. The conditions noted are these: human, A549 lung carcinoma cells, read-out: % cell viability (±SEM). On the procedure:
MCA205 mouse sarcoma cell line is cultured at 37° C. under 5% CO2 in RPMI 1640 medium (Life Technologies) in the presence of 1% glutamine, 1% sodium pyruvate, 1% non-essential amino-acids, 1% penicillin/streptomycin and 10% FBS (Life Technologies) under standard conditions. B16F10 mouse melanoma cell line, MRC5 human fibroblast cell line and A375 human melanoma cell line are cultured at 37° C. under 5% CO2 in DMEM medium (Life Technologies) containing 1% glutamine, 1% penicillin/streptomycin and 10% FCS under standard conditions. A549 human lung carcinoma cell line is cultured at 37° C. under 5% CO2 in DMEM/F12+Glutamax I in the presence of 1% Hepes, 1% sodium pyruvate and 10% FBS under standard conditions. Stable MCA205-Globin-SL8-intron cell line are cultured under the same condition as MCA205 cell line with additional 2 mg/ml G418 (geneticin from Life Technologies) for selection. Stable B16F10-Globin-SL8-intron cell line are cultured under the same condition as B16F10 cell line with additional 2 mg/ml G418 (geneticin from Life Technologies) for selection. The SL8/Kb-specific (B3Z) T-cell reporter hybridoma are cultured at 37° C. under 5% CO2 in RPMI 1640 medium (Life Technologies) in the presence of 1% glutamine, 0.1% β-galactosidase, 1% penicillin/streptomycin and 10% FCS under standard conditions. […]

The nature of data set [6]: MTT assay on B16F10 cell line. It counts as cell-based, mouse. As to conditions: mouse, B16F10 melanoma cells, MTT, read-out: % cell viability (±SEM). As to the method: as §1, §2, §3

Entries after “also recorded” stand apart in the source; their conditions may differ.

Turning to `COc1ccc(-c2cc(=O)c3c(OC)cc(OP(=O)([O-])[O-])c(-c4cc(-c5cc(=O)c6c(OC)cc(OP(=O)([O-])[O-])cc6o5)ccc4OC)c3o2)cc1.[Na+].[Na+].[Na+].[Na+]` [IM2P2], in data set [1], the “toxicity (MTT, percentage of viable cells compared to control)” value is on record as “no toxicity”. Also, the tumor growth entry in the data set with MCA205 WT tumor was “did not impact tumor growth”. The “splicing of Globin-SL8-intron RNA (ratio unspliced/spliced, qRT-PCR)” value in data set [2] is reported as “has a strong impact on splicing; also recorded: strongly inhibits the splicing”. Also, the “expression of the H2-K^b molecules at the cell surface” value in data set [3] and in data set [4] was “is not affected” throughout.

As to `COc1ccc(-c2cc(=O)c3c(O)cc(O)c(-c4cc(-c5cc(=O)c6c(O)cc(O)cc6o5)ccc4OC)c3o2)cc1` [Isoginkgetin, isoginkgetin], in data set [5] (A549, 2.5 μM), the viability at 2.5 µM was 100%. The viability at 6.25 µM in data set [5] (A549, 6.25 μM) was found to be 84%; in data set [6] (B16F10, 6.25 μM) it was 86.5%. In addition, in data set [6] (B16F10, 15 μM), the viability at 15 µM was found to be 58.6%. Further, in data set [6] (B16F10, 25 μM), the viability at 25 µM is 51.2%.

The values are drawn from patent publication US11110105B2, “Compounds, composition and uses thereof for treating cancer” (INSTITUT GUSTAVE ROUSSY, priority 2017, dated 2021).
